According to patent US9809562B2, “NAT10 modulators for treating or preventing laminopathies, aging and cancer” (CAMBRIDGE ENTERPRISE LIMITED, priority 2014, dated 2017):
Structures can show the parent of a compound that is named as a salt. Where two headings read alike, the source gives them in different places.

Tests used:
[1] = tested on: HGPS AG11498 cells; assay: Senescence-associated β-galactosidase in HGPS cells; format: cell-based, human
Method: The following KAT and KDAC inhibitors were used in the nuclear shape rescue screen, incubating cells with the molecules for 16 hours: trichostatin A (1 μM), sodium butyrate (5 mM), tubacin (10 μM), SAHA (5 μM), curcumin (10 μM), garcinol (50 μM), anacardic acid (1 μM), MB-3 (5 μM), 4-(4-chlorophenyl)-2-(2-cyclopentylidenehydrazinyl)thiazole (Compound 2) (50 μM), 4-(4-chlorophenyl)-2-(2-cyclopentylidene-1-(prop-2-yn-1-yl)hydrazinyl)thiazole (Compound 3) (50 μM) and cyclopentylidene-[4-(4-cyanophenyl)thiazol-2-yl)hydrazine (Compound 1) (Remodelin) (10 to 50 μM). For HGPS cellular fitness assays, Remodelin was incubated at 1 μM for 1 to 10 days, renewing the medium every 3 days. For long-term senescence assay, cells were kept and passaged in medium containing 1 μM Remodelin or DMSO only for 12 population doublings. Senescence was assessed after 8 days of Remodelin treatment when cells were at Population Doubling 12, and then after several weeks of Remodelin treatment, when cells reached Population Doubling 24 using the Senescence β-Galactosidase Staining Kit #9860 from Cell Signaling. Nocodazole, colchicine and latrunculin A (Sigma-Aldrich) were used at 200 ng/ml, 1 μg/ml and 1 μM respectively. Aphidicolin (Sigma-Aldrich) was used at 5 μg/ml for 16 h. Farnesyltransferase inhibitor FTI-277 was purchased from Tocris Bioscience and used at 5 μM. ATMi (KU55933) and ATRi (ATR-45) were obtained from Tocris Bioscience and from the Ohio State University respectively and used at 10 μM and 500 nM. Pifithrin alpha (Sigma-Aldrich) was used at 10 μM.

[2] = Pharmacokinetics assay of Remodelin in mice; format: in vivo; conditions: ICR mice; for half-life: read-out: half-life (T½) (converted)
Method: FIG. 17: Pharmacokinetics assay of Remodelin in mice. A) The pharmacokinetics of Remodelin was evaluated in ICR mice following IV at 1 mg/kg and PO at 5 mg/kg dose level. […] B) Details of the results obtained in the curves shown in A).

[3] = tested on: HGPS cells; assay: EdU incorporation by flow cytometry in HGPS cells; format: cell-based, human; conditions: 2 hours EdU
Method: 10 μM EdU was incubated for 2 hours when indicated. Cells were fixed in 4% paraformaldehyde (Sigma-Aldrich). EdU was fluorescently labeled using the Click-iT® EdU Flow Cytometry Assay Kit (Life Sciences). DNA was stained with […] propidium iodide (Sigma-Aldrich) in phosphate buffer solution (PBS) containing 0.1% Triton-X-100 and 0.5 mg ml^−1 DNase free RNase A (Sigma-Aldrich). Samples were processed on a FACSCalibur flow cytometer equipped with CellQuest software (Becton Dickinson). Results were analysed using FlowJo software (TreeStar).

[4] = tested on: tubulin in U2OS cells; assay: Analysis of soluble or polymerised tubulin; format: cell-based, human; conditions: 5 μM Remodelin 16 hours
Method: U2OS cells pre-treated with 5 μM Remodelin for 16 hours or with 10 μM nocodazole for 8 hours, were lysed in MT Stabilization Buffer (MSB) (85 mM PIPES [pH 6.9], 1 mM EGTA, 1 mM MgCl2, 2M glycerol, 0.5% Triton with 4 μg/ml Taxol). Lysates were kept at 4° C. for 2 minutes and then centrifuged for 10 minutes at 13,000 rpm. Supernatants, representing the soluble fraction of proteins, were transferred to new tubes, and Laemmli buffer was added. Pellets, representing the polymerized fraction of proteins, were washed once in MSB without Triton, and then resuspended in Laemmli buffer. Equal amounts of lysate were loaded on a gradient gel.

[5] = tested on: LMNA knock out (KO) U2OS cell line; assay: Cell growth of LMNA KO versus LMNA WT U2OS cells (IncuCyte ZOOM); format: cell-based, human; conditions: U2OS, CripR/Cas9 LMNA KO
Excerpt: LMNA knock out (KO) U2OS cell line was engineered using CripR/Cas9 technology. The sensitivity of LMNA KO cells to Compound 2 was compared to cells expressing wild type LMNA (LMNA WT). Cell growth was monitored automatically over time using an IncuCyte ZOOM®. The results are shown in FIG. 21 which has been split into two graphs for easier reading of the curves.

[6] = tested on: LMNA KO U2OS cells; assay: Global protein translation by HPG incorporation (FACS), LMNA KO; format: cell-based, human; conditions: 24 h treatment, 1 h HPG
Method: U2OS cells expressing wild type or KO LMNA were treated with Compound 2 for 24 h and incubated for 1 h with the clickable methionine analogue HPG to measure global protein translation. HPG was then clicked with an Alexa fluor 488 and global fluorescence intensity was quantified by FACS on 10 000 cells.

Oral exposure (AUC0-∞) ([2]; PO 5 mg/kg) | clearance ([2]; mouse, plasma, IV 1 mg/kg) | half-life ([2]; mouse, plasma, IV 1 mg/kg) | Tmax ([2]; mouse, plasma, PO 5 mg/kg) | bioavailability ([2]; mouse, plasma, PO 5 mg/kg vs IV 1 mg/kg) | half-life ([2]; mouse, plasma, PO 5 mg/kg) | Cmax ([2]; mouse, plasma, PO 5 mg/kg, read-out: maximum plasma concentration (Cmax)) | SMILES | long-term senescence of HGPS cells ([1]; 1 μM Remodelin, several weeks, 12 cell divisions (PDL 24)) | senescence of HGPS cells (β-galactosidase positive cells) ([1]; HGPS AG11498, Remodelin 1 μM, Pifithrin alpha 10 μM) | DNA replication (EdU incorporation) [3] | tubulin assembly into polymers [4] | cell growth inhibition of LMNA KO versus LMNA WT cells [5] | global protein translation (HPG fluorescence intensity) [6]
259 ng·h/mL | 139 mL/min/kg | 54.9 min | 15 min | 43.5% | 109 min | 409 ng/mL | N#Cc1ccc(-c2csc(NN=C3CCCC3)n2)cc1 [Compound 1, 4-(4-Cyanophenyl)-2-(2-cyclopentylidenehydrazinyl)thiazole] | prevented HGPS cell senescence even after several weeks of treatment | decreased senescence | improved DNA replication | did not affect Golgi apparatus integrity (FIG. 13C) or tubulin assembly into polymers | – | –
– | – | – | – | – | – | – | Clc1ccc(-c2csc(NN=C3CCCC3)n2)cc1 [Compound 2, 4-(4-Chlorophenyl)-2-(2-cyclopentylidenehydrazinyl)thiazole Hydrochloride Salt] | – | – | – | – | specificity of Compound 2 towards inhibiting cell growth of LMNA KO cells | strong reduction of global protein translation
